Source: patent US9790180B2, “Piperidine derivatives as HDAC1/2 inhibitors” (Acetylon Pharmaceuticals, Inc., priority 2014, dated 2017)
In brackets after ≈: the same amount, converted by molar mass.

Assays:
[1] = molecular target: HDAC1 (Homo sapiens (Human), UniProt Q13547); test: HDAC enzyme assay, HDAC1; type: biochemical; details: 24 hours pre-incubation with enzyme; read-out: IC50 (nM) HDAC1
Protocol: (§1) Compounds for testing were diluted in DMSO to 50 fold the final concentration and a ten point three fold dilution series was made. The compounds were diluted in assay buffer (50 mM HEPES, pH 7.4, 100 mM KCl, 0.001% Tween-20, 0.05% BSA, 20 μM tris(2-carboxyethyl)phosphine) to 6 fold their final concentration. The HDAC enzymes (purchased from BPS Biosciences) were diluted to 1.5 fold their final concentration in assay buffer and pre-incubated with the compounds for 24 hours prior to addition of the substrate.
(§2) The substrate tripeptide substrate 3 (synthesized in house) for each enzyme was equal to the Km as determined by a substrate titration curve. The substrates were diluted in assay buffer at 6× their final concentration with 0.3 μM sequencing grade trypsin (Sigma). The substrate/trypsin mix was added to the enzyme/compound mix, the plate was shaken for 60 seconds and placed into a Spectramax M5 microtiter plate reader. The development of fluorescence was monitored for 30 min and the linear rate of the reaction was calculated. The IC50 was determined using Graph Pad Prism by a four parameter curve fit. The IC50 values obtained for the compounds of this invention are found in Table 1. Examples of the curves are found in FIGS. 1 and 4.

[2] = Solubility; type: physicochemical
[3] = system: bacterial tester strains TA98, TA100, TA1535 and TA97a and E. coli tester strain WP2 uvrA; test: Ames genotoxicity (bacterial reverse mutation); details: In vitro tox
Protocol: For genotoxicity, bacterial tester strains TA98, TA100, TA1535 and TA97a as described by Ames et al. (1975) and the E. coli tester strain WP2 uvrA as described by Green and Muriel (1976) were incubated with Compound 003 at 250, 75, 25, 7.5, 2.5, 0.75, 0.25, and 0.075 μg/well in 24 well plates either with or without liver homogenate (S9) purchased commercially (MolTox; Boone, N.C.) prepared from male Sprague Dawley rats that have been injected intraperitonealy with Aroclor 1254 (200 mg/mL in corn oil), at a dose of 500 mg/kg, 5 days before sacrifice. Mutagenicity is evaluated by counting the number of colonies that form on non-permissive media.

[4] = molecular target: HDAC2 (Homo sapiens (Human), UniProt Q92769); test: HDAC enzyme assay, HDAC2; type: biochemical; details: 24 hours pre-incubation with enzyme; read-out: IC50 (nM) HDAC2
Protocol: as §1, §2

[5] = system: human peripheral blood lymphocytes (HPBL); test: Micronucleus formation assay; type: cell-based; details: In vitro tox
Protocol: Genotoxicity was further evaluated by micronucleus formation assay in human peripheral blood lymphocytes (HPBL). HPBL were obtained from healthy donors and exposed to Compound 003 at […] for 4 hours with or without S9 activation. The cells were washed with PBS and incubated in complete medium with 6 μg/ml cytocholasin B for 24 hours. The cells were then lysed, fixed, and mounted on microscope slides. The number of mononucleated, binucleated, and micronucleated cells was counted under blinded conditions.

Chain of HDAC1 (Q13547 whole entry): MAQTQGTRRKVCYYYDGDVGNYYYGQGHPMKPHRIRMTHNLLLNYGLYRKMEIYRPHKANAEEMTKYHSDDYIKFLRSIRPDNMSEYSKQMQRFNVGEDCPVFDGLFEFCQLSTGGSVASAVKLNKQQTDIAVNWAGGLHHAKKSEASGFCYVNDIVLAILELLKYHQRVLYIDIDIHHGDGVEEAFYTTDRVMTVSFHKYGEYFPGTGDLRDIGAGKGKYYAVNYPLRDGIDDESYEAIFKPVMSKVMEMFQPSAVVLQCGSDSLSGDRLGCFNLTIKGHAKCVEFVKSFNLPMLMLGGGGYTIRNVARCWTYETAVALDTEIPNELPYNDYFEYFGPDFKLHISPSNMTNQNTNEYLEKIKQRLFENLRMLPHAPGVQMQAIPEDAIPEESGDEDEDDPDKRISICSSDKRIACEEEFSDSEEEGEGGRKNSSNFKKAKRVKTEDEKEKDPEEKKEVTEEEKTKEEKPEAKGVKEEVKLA
Chain of HDAC2 (Q92769 whole entry): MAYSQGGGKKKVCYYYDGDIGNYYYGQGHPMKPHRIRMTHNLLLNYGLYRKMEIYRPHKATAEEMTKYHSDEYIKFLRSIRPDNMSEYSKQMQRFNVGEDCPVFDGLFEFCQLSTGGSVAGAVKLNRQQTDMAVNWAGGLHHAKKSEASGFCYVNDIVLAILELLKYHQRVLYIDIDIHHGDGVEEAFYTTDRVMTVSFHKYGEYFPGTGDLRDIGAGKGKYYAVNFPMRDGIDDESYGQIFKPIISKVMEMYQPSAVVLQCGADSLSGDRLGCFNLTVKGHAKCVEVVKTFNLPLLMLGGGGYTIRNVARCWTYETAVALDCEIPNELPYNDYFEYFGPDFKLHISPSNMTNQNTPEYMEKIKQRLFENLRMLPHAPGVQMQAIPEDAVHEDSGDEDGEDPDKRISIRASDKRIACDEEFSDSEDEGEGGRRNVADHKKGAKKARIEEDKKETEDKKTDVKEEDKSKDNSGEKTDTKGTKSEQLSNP

Structure (SMILES): CN1CCN(C(=O)N2CCC(Nc3ccc(C(=O)Nc4cc(-c5cccs5)ccc4N)cc3)CC2)CC1 [Compound 005]
- IC50 [1]: 1.2 nM
- solubility [2]: 13.8 µM (≈ 7.16 µg/mL)
- Ames [3]: Neg
- IC50 [4]: 4.9 nM
- MN [5]: Neg
